Here are results for five molecules from patent US20190315806A1, “POLYMYXIN DERIVATIVE, PREPARATION METHOD AND APPLICATION THEREOF” (priority 2016, published 2019).

Common to all, as to type: cell-based
Assay [1] deals with Acinetobacter baumannii ATCC 19606. The note with it: ATCC 19606. The procedure: (§1) The minimum inhibitory concentration (MIC) was determined by means of dish double dilution method using a Multipoint inoculator according to the CLSI recommended method. The compounds of the present invention (for example, the compounds prepared in the Embodiments) and the reference substances were diluted twice each time with the broth into various desired concentrations, and appropriate amounts were added to the dishes. Agar medium is melted, and then quantitatively injected into the dish containing the drug solution, and mixed. The final concentrations of the compounds of the invention (e.g., the compounds prepared in the Embodiments) and the controls were 0.03, 0.06, 0.125, 0.25 . . . 128 μg/mL, respectively. The test bacteria were cultured overnight with nutrient broth, brain heart infusion or HTM broth. During the tests, the bacterial solutions were diluted appropriately, and the test bacteria (inoculation amount 10^4 CFU/dot) were inoculated on the surface of the drug-containing agar by a multi-point inoculator. After drying, the bacterial was incubated for 18 to 24 hours at 35° C., the results were observed, the minimum concentrations of the compounds of the present invention (for example, the compounds prepared in the Embodiments) and the controls contained in the dishes with no growth of colonies were MICs.
(§2) The strains used in the antibacterial activity experiments were from the American Type Culture Collection (ATCC) and clinical isolates.
(§3) The strains used for the experiments on antibacterial activity included Escherichia coli ATCC 25922, Klebsiella pneumoniae ATCC BAA-2146 (NDM-1), Pseudomonas aeruginosa ATCC 27853, Acinetobacter baumannii ATCC 19606 and Staphylococcus epidermidis ATCC 12228.
(§4) Tested samples: polymyxin derivatives prepared according to the technical scheme of the present invention;
(§5) Controls: polymyxin B sulfate and colistin (polymyxin E sulfate).

Assay [2] has as its system Escherichia coli ATCC 25922. The settings on record: ATCC 25922. The procedure: as §1, §2, §3, §4, §5
The subject of assay [3] is Pseudomonas aeruginosa ATCC 27853. The note with it: ATCC 27853. As for the experimental part: as §1, §2, §3, §4, §5
Assay [4] concerns Staphylococcus epidermidis ATCC 12228. The settings on record: ATCC 12228. As for the experimental part:
as §1, §2, §3, §4, §5

Assay [5] concerns Klebsiella pneumoniae ATCC BAA-2146 (NDM-1). The experiment in a line: Antibacterial activity, MIC by dish double dilution method. The note with it: ATCC BAA-2146. The procedure: as §1, §2, §3, §4, §5

Each structure is given as a SMILES string. Converted amounts (≈) assume the structure as drawn. Where a SMILES comes first, the peptide text is derived from it. Bridges are numbered along the chain shown (N, C = ends). [ ]: non-standard residue; d: D form. The star is where a group is joined. dPhe(4-tBu) = CC(C)(C)c1ccc(C[C@@H](N)C(=O)O)cc1; dBpa = N[C@H](Cc1ccc(C(=O)c2ccccc2)cc1)C(=O)O; dPhe(4-Me) = Cc1ccc(C[C@@H](N)C(=O)O)cc1; X2 = CC[C@H](C)CCCCC(=O)*; dDab = NCC[C@@H](N)C(=O)O; Octanoyl = CCCCCCCC(=O)*; Dab = NCC[C@H](N)C(=O)O

For the molecule `CCOc1ccc(C[C@H]2NC(=O)[C@H](CCN)NC(=O)[C@@H](NC(=O)[C@H](CCN)NC(=O)[C@@H](NC(=O)[C@H](CCN)NC(=O)CCCC[C@@H](C)CC)[C@@H](C)O)CCNC(=O)[C@H]([C@@H](C)O)NC(=O)[C@H](CCN)NC(=O)[C@H](CCN)NC(=O)[C@H](CC(C)C)NC2=O)cc1` [Compound 25, (S)-6-methyloctanoyl-Dab-Thr-Dab-ring(4-10)[Dab-Dab-D-Phe(4-OEt)-Lue-Dab-Dab-Thr]] (X2-[Dab]T[Dab][Dab][Dab][dY](Et)L[Dab][Dab]T; lactam 4-C), the “MIC A. baumannii ATCC 19606” value in assay [1] came to 2 µg/mL (≈ 1.6 µM). In addition, in assay [2], the “MIC E. coli ATCC 25922” value was found to be 1 µg/mL (≈ 0.802 µM). Moreover, the “MIC P. aeruginosa ATCC 27853” value in assay [3] came out at 2 µg/mL (≈ 1.6 µM). The “MIC S. epidermidis ATCC 12228” value in assay [4] was determined as 16 µg/mL (≈ 12.8 µM). Moreover, the “MIC K. pneumoniae ATCC BAA-2146 (NDM-1)” value in assay [5] amounted to 2 µg/mL (≈ 1.6 µM).
`CC[C@H](C)CCCCC(=O)N[C@@H](CCN)C(=O)N[C@H](C(=O)N[C@@H](CCN)C(=O)N[C@H]1CCNC(=O)[C@H]([C@@H](C)O)NC(=O)[C@H](CCN)NC(=O)[C@H](CCN)NC(=O)[C@H](CC(C)C)NC(=O)[C@@H](Cc2ccc(C)cc2)NC(=O)[C@H](CCN)NC1=O)[C@@H](C)O` [Compound 26, (S)-6-methyloctanoyl-Dab-Thr-Dab-ring(4-10)[Dab-Dab-D-Phe(4-CH3)-Lue-Dab-Dab-Thr]] (X2-[Dab]T[Dab][Dab][Dab][dPhe(4-Me)]L[Dab][Dab]T; lactam 4-C): in assay [1], the “MIC A. baumannii ATCC 19606” value worked out at 0.5 µg/mL (≈ 0.411 µM). For the same molecule, the “MIC E. coli ATCC 25922” value in assay [2] came to 1 µg/mL (≈ 0.821 µM). Besides, in assay [3], the “MIC P. aeruginosa ATCC 27853” value turned out to be 2 µg/mL (≈ 1.64 µM). The “MIC S. epidermidis ATCC 12228” value in assay [4] is 8 µg/mL (≈ 6.57 µM). Moreover, in assay [5], the “MIC K. pneumoniae ATCC BAA-2146 (NDM-1)” value stood at 2 µg/mL (≈ 1.64 µM).
As to `CC[C@H](C)CCCCC(=O)N[C@@H](CCN)C(=O)N[C@H](C(=O)N[C@@H](CCN)C(=O)N[C@H]1CCNC(=O)[C@H]([C@@H](C)O)NC(=O)[C@H](CCN)NC(=O)[C@H](CCN)NC(=O)[C@H](CC(C)C)NC(=O)[C@@H](Cc2ccc(C(C)(C)C)cc2)NC(=O)[C@H](CCN)NC1=O)[C@@H](C)O` [Compound 27, (S)-6-methyloctanoyl-Dab-Thr-Dab-ring(4-10)[Dab-Dab-D-Phe(4-tBu)-Lue-Dab-Dab-Thr]] (X2-[Dab]T[Dab][Dab][Dab][dPhe(4-tBu)]L[Dab][Dab]T; lactam 4-C), the “MIC A. baumannii ATCC 19606” value in assay [1] was determined as 8 µg/mL (≈ 6.35 µM). Besides, the “MIC E. coli ATCC 25922” value in assay [2] was determined as 2 µg/mL (≈ 1.59 µM). Also, the “MIC P. aeruginosa ATCC 27853” value in assay [3] is 4 µg/mL (≈ 3.18 µM). In addition, the “MIC S. epidermidis ATCC 12228” value in assay [4] was determined as 8 µg/mL (≈ 6.35 µM). Moreover, the “MIC K. pneumoniae ATCC BAA-2146 (NDM-1)” value in assay [5] was found to be 4 µg/mL (≈ 3.18 µM).
For the molecule `CC[C@H](C)CCCCC(=O)N[C@@H](CCN)C(=O)N[C@H](C(=O)N[C@@H](CCN)C(=O)N[C@H]1CCNC(=O)[C@H]([C@@H](C)O)NC(=O)[C@H](CCN)NC(=O)[C@H](CCN)NC(=O)[C@H](CC(C)C)NC(=O)[C@@H](Cc2ccc(C(=O)c3ccccc3)cc2)NC(=O)[C@H](CCN)NC1=O)[C@@H](C)O` [Compound 29, (S)-6-methyloctanoyl-Dab-Thr-Dab-ring(4-10)[Dab-Dab-D-Phe(4-benzoyl)-Lue-Dab-Dab-Thr]] (X2-[Dab]T[Dab][Dab][Dab][dBpa]L[Dab][Dab]T; lactam 4-C), in assay [1], the “MIC A. baumannii ATCC 19606” value was 1 µg/mL (≈ 0.765 µM). In addition, the “MIC E. coli ATCC 25922” value in assay [2] came out at 2 µg/mL (≈ 1.53 µM). For the same molecule, the “MIC P. aeruginosa ATCC 27853” value in assay [3] was found to be 4 µg/mL (≈ 3.06 µM). Further, the “MIC S. epidermidis ATCC 12228” value in assay [4] was 16 µg/mL (≈ 12.2 µM). In addition, the “MIC K. pneumoniae ATCC BAA-2146 (NDM-1)” value in assay [5] turned out to be 2 µg/mL (≈ 1.53 µM).
As to `CCCCCCCC(=O)N[C@@H](CCN)C(=O)N[C@H](C(=O)N[C@H](CCN)C(=O)N[C@H]1CCNC(=O)[C@H]([C@@H](C)O)NC(=O)[C@H](CCN)NC(=O)[C@H](CCN)NC(=O)[C@H]([C@@H](C)O)NC(=O)[C@@H](CC(C)C)NC(=O)[C@H](CCN)NC1=O)[C@@H](C)O` [Compound 32, octanoyl-Dab-Thr-D-Dab-ring(4-10)[Dab-Dab-D-Leu-Thr-Dab-Dab-Thr]] (Octanoyl-[Dab]T[dDab][Dab][Dab][dL]T[Dab][Dab]T; lactam 4-C), the “MIC A. baumannii ATCC 19606” value in assay [1] was 0.5 µg/mL (≈ 0.437 µM). Also, the “MIC E. coli ATCC 25922” value in assay [2] was 0.5 µg/mL (≈ 0.437 µM). Also, the “MIC P. aeruginosa ATCC 27853” value in assay [3] was determined as 1 µg/mL (≈ 0.875 µM). In assay [4], the “MIC S. epidermidis ATCC 12228” value was greater than 128 µg/mL. Besides, in assay [5], the “MIC K. pneumoniae ATCC BAA-2146 (NDM-1)” value was found to be 0.5 µg/mL (≈ 0.437 µM).
